Experimental data from patent US20050277586A1, “Peptide chemically modified with polyethylene glycol” (priority 2002, published 2005).

How the values were obtained:
[1] = Measurement of turbidity in BSA (absorbance at 600 nm); assay type: physicochemical; conditions: 1% BSA, peptide 50 μM
Procedure: The solutions were evaluated for their absorbance at a wavelength of 600 nm by using a spectrophotometer (DU640, manufactured by Beckman).

21mer oligonucleotide = assay: Binding ability to oligonucleotide (gel electrophoresis); conditions: charge ratio (±ratio) of 10
Procedure: The 21mer oligonucleotide prepared by the procedure described in Example 6 (final concentration, 6.7 μM) and the peptide prepared by the procedure described in Examples 1 to 3 were mixed in 20 mM Tris-HCl buffer (pH=7.2) containing 150 mM NaCl at a charge ratio (±ratio) of 0 to 10, and the mixture was allowed to stand at 37° C. for 30 minutes. Next, 7.5 μL of this solution was mixed with an equal amount of Tris-borate buffer (pH=8.2) containing 80% formamide, and electrophoresis was conducted on 25% polyacrylamide gel containing 7M urea. After the electrophoresis, the gel was stained with 5% aqueous solution of Stains all (manufactured by Funakoshi) containing 50% formamide and washed with water to thereby determine the binding of the oligonucleotide and the peptide.
The ±ratio (charge ratio) indicated in FIG. 10 is the ratio of the number (+) of the positively-charged groups in the peptide to the number (−) of negatively-charged groups in the nucleic acid. As evident in FIG. 10, the amount of oligonucleotide that became bound to the peptide increased with the increase in the charge ratio (±ratio), and the oligonucleotide was fully bound to the peptide at a charge ratio (±ratio) of 10. The peptides of SEQ ID NO: 2 to SEQ ID NO: 24 were also found to bind at a charge ratio (±ratio) of 10.

[2] = Affinity for phosphatidyl serine by surface plasmon resonance (Biacore 2000); assay type: binding; conditions: in the presence of 0.1 mg/mL BSA
Procedure: The specific affinity of the peptide for phosphatidyl serine was evaluated by means of surface plasmon resonance (SPR) using Biacore 2000 (manufactured by Biacore). To be more specific, phosphatidyl choline was immobilized on flow cell 1, and 50% of phosphatidyl serine and 50% of phosphatidyl choline were immobilized on flow cell 2 of HPA chip (manufactured by Biacore), and ability of the peptide to bind to the phospholipid was evaluated in the presence of 0.1 mg/mL BSA to thereby evaluate the affinity.

Vero cell = assay: Luciferase-expressing plasmid introduction into Vero cell; assay type: cell-based, monkey
Source text: (§1) A cell line established from monkey kidney (Vero cell) and a human bladder cancer cell (T24 cell) purchased from American Type Culture Collection (ATCC) and human lung cancer cell (A549 cell) purchased from Dainippon Pharmaceutical were inoculated on a 24 well culture plate (manufactured by NALGEN NUNC) at 1×10^5 cells/well. Vero cell and A549 cell were cultivated in DMEM (manufactured by Life Technologies Oriental) supplemented with 10% fetal bovine serum (hereinafter referred to as FBS, manufactured by NICHIREI), and T24 cell was cultivated in McCoy's 5a (manufactured by Life Technologies Oriental) supplemented with 10% FBS in 5% CO2 atmosphere at 37° C. for 24 hours. […] The luciferase activity expressed in the cell was then measured by the method instructed in luciferase assay system (manufactured by Promega). […]
(§2) 20 μL of this cell lysate and 100 μL of the Luciferase Assay Reagent II attached to the kit was added to a fluorescence-measuring plate (Microlite™ 1 plate, manufactured by Dynatech), and after mixing, fluorescence was measured for 1 second by using a multilabel counter (ARVO™ SY1420 MULTILABEL COUNTER, manufactured by Wallac Beltold. […]

A549 cell = assay: Luciferase-expressing plasmid introduction into A549 cell; assay type: cell-based, human
Source text: as §1, §2

T24 cell = assay: Luciferase-expressing plasmid introduction into T24 cell; assay type: cell-based, human
Source text: as §1, §2

OD 600 [1]: 0.03 | Binding of oligonucleotide to the peptide (21mer oligonucleotide): fully bound
Sequence: TRYLRIHPRSWVHQIALRLRYLRIHPRSWVHQIALRS [SEQ ID NO: 1]
Binding to flow cell 2 (50% phosphatidyl serine, 50% phosphatidyl choline) and flow cell 1 (phosphatidyl choline) [2]: stronger | Luciferase activity (Vero cell): 2.5 × 10^6 cps/mg protein | Luciferase activity (A549 cell): 8.7 × 10^4 cps/mg protein | Luciferase activity (T24 cell): 7.8 × 10^3 cps/mg protein
